test system: Drosophila melanogaster; test: Insecticidal activity against wild type Drosophila melanogaster L. assessed as mortality compound topically applied dorsally to the thorax at 23 to 25 25 degC, 60 to 70%RH measured per adult after 3 hr; assay type: functional

| Structure (SMILES) | LD50 |
| --- | --- |
| C=C1CCC[C@]2(C)Cc3occ(C)c3C[C@@H]12 [ATRACTYLON] | 1.43 µg |
| C=C(C)[C@@H]1CC[C@@]2(C)CCCC(=C)[C@@H]2C1 [BETA-SELINENE] | 0.55 µg |
| CC1=CCC[C@H](C)[C@@]12CC[C@@H](C(C)(C)O)C2 [HINESOL] | 0.71 µg |
| C=C1CCC[C@]2(C)CC[C@@H](C(C)(C)O)C[C@@H]12 [BETA-EUDESMOL] | 2.63 µg |
| C=C[C@]1(C)CC[C@@H](C(C)(C)O)C[C@H]1C(=C)C [ALPHA-ELEMOL] | 0.65 µg |

— ChEMBL document CHEMBL3045016, “Insecticidal compounds from the essential oil of Chinese medicinal herb Atractylodes chinensis” (2011)
